Assay results from US20010056085A1, “Methods of using vesicant drug formulations” (priority 1996, published 2001).
Like-named read-outs stand apart in the source and are kept apart here.

Assay: Half-life of ADR destruction by UVA light in the presence of test compounds (decrease in absorbance at 480 nm)
Type: physicochemical
[1] = UVA light, 100 μM test compound with 0.5 μM riboflavin
[2] = UVA light, 100 μM test compound alone

Compound: 3-Amino Phenylsulfone
- Half-Life of ADR Destruction, 100 μM Test Compound and 0.5 μM Riboflavin [1]: 8.60 min

Compound: 4-Ethoxyphenyl-2-furyl ketone
- Half-Life of ADR Destruction, 100 μM Test Compound [2]: 12.5 min
- Half-Life of ADR Destruction, 100 μM Test Compound and 0.5 μM Riboflavin [1]: 11.2 min

Compound: c1ccc2c(c1)CCCN2 [1,2,3,4-Tetrahydroquinoline]
- Half-Life of ADR Destruction, 100 μM Test Compound and 0.5 μM Riboflavin [1]: 100.3 min

Compound: Cn1c(=O)c2[nH]c(=O)[nH]c2n(C)c1=O [1,3-Dimethyl Uric acid]
- Half-Life of ADR Destruction, 100 μM Test Compound [2]: 75.3 min
- Half-Life of ADR Destruction, 100 μM Test Compound and 0.5 μM Riboflavin [1]: 21.5 min

Compound: CC(=O)c1ccc2c(c1)OCCO2 [1,4-Benzodioxane-6-yl methyl ketone]
- Half-Life of ADR Destruction, 100 μM Test Compound [2]: 43.0 min
- Half-Life of ADR Destruction, 100 μM Test Compound and 0.5 μM Riboflavin [1]: 33.4 min

Compound: O=C1c2c(O)cccc2Cc2cccc(O)c21 [1,8-Dihydroxyanthrone]
- Half-Life of ADR Destruction, 100 μM Test Compound [2]: 27.4 min
- Half-Life of ADR Destruction, 100 μM Test Compound and 0.5 μM Riboflavin [1]: 30.1 min

Compound: CC(=O)c1cccc2ccccc12 [1-Acetonaphthone]
- Half-Life of ADR Destruction, 100 μM Test Compound [2]: 6.69 min
- Half-Life of ADR Destruction, 100 μM Test Compound and 0.5 μM Riboflavin [1]: 6.54 min

Compound: Nc1cccc2c1Cc1ccccc1C2 [1-Amino-9,10-dihydroanthracene]
- Half-Life of ADR Destruction, 100 μM Test Compound [2]: 75.3 min
- Half-Life of ADR Destruction, 100 μM Test Compound and 0.5 μM Riboflavin [1]: 75.3 min

Compound: O=c1c2ccccc2oc2ncccc12 [1-Azaxanthrone]
- Half-Life of ADR Destruction, 100 μM Test Compound [2]: 2.87 min
- Half-Life of ADR Destruction, 100 μM Test Compound and 0.5 μM Riboflavin [1]: 2.60 min

Compound: Cn1cccc1 [1-Methyl Pyrrole]
- Half-Life of ADR Destruction, 100 μM Test Compound and 0.5 μM Riboflavin [1]: 27.4 min

Compound: Cn1c(=O)[nH]c2[nH]c(=O)[nH]c2c1=O [1-Methyl Uric acid]
- Half-Life of ADR Destruction, 100 μM Test Compound and 0.5 μM Riboflavin [1]: 33.4 min

Compound: Cn1cc(C[C@H](N)C(=O)O)c2ccccc21 [1-Methyl-tryptophan]
- Half-Life of ADR Destruction, 100 μM Test Compound and 0.5 μM Riboflavin [1]: 9.71 min

Compound: OCc1cccc2ccccc12 [1-Naphthalenemethanol]
- Half-Life of ADR Destruction, 100 μM Test Compound and 0.5 μM Riboflavin [1]: 50.2 min

Compound: Cn1ccc2ccccc21 [1-methyl Indole]
- Half-Life of ADR Destruction, 100 μM Test Compound and 0.5 μM Riboflavin [1]: 33.5 min

Compound: c1ccc2c3c([nH]c2c1)CCCCCC3 [2,3-Cyclooctenoindole]
- Half-Life of ADR Destruction, 100 μM Test Compound and 0.5 μM Riboflavin [1]: 15.8 min

Compound: Cc1[nH]c2ccccc2c1C [2,3-Dimethyl Indole]
- Half-Life of ADR Destruction, 100 μM Test Compound and 0.5 μM Riboflavin [1]: 20.1 min

Compound: COc1cc(OC)c(OC)cc1C=CC(=O)O [2,4,5-Trimethoxy Cinnamic Acid]
- Half-Life of ADR Destruction, 100 μM Test Compound and 0.5 μM Riboflavin [1]: 18.8 min

Compound: CC(C)(C)c1cc(C(C)(C)C)c(N)c(C(C)(C)C)c1 [2,4,6-Tri-tert-butyl Aniline]
- Half-Life of ADR Destruction, 100 μM Test Compound and 0.5 μM Riboflavin [1]: 43.0 min

Compound: Nc1c(-c2ccccc2)cc(-c2ccccc2)cc1-c1ccccc1 [2,4,6-Triphenylaniline]
- Half-Life of ADR Destruction, 100 μM Test Compound and 0.5 μM Riboflavin [1]: 33.5 min

Compound: Nc1ccc(F)cc1F [2,4-Difluoro Aniline]
- Half-Life of ADR Destruction, 100 μM Test Compound and 0.5 μM Riboflavin [1]: 7.92 min

Compound: Cc1c[nH]c(C)c1 [2,4-Dimethyl Pyrrole]
- Half-Life of ADR Destruction, 100 μM Test Compound and 0.5 μM Riboflavin [1]: 20.1 min

Compound: CCc1c(C)c[nH]c1C [2,4-Dimethyl-3-ethyl Pyrrole]
- Half-Life of ADR Destruction, 100 μM Test Compound and 0.5 μM Riboflavin [1]: 20.1 min

Compound: Nc1ccc([N+](=O)[O-])cc1[N+](=O)[O-] [2,4-Dinitro Aniline]
- Half-Life of ADR Destruction, 100 μM Test Compound: 75.3 min
- Half-Life of ADR Destruction, 100 μM Test Compound and 0.5 μM Riboflavin: 50.2 min

Compound: Nc1ccc(N)c(S(=O)(=O)O)c1 [2,5-Diamino Benzene sulfonic acid]
- Half-Life of ADR Destruction, 100 μM Test Compound and 0.5 μM Riboflavin [1]: 27.4 min

Compound: O=S(=O)(O)c1cc(O)ccc1O [2,5-Dihydroxy Benzenesulfonic acid]
- Half-Life of ADR Destruction, 100 μM Test Compound and 0.5 μM Riboflavin [1]: 25.1 min

Compound: Cc1ccc2[nH]c(C)cc2c1 [2,5-Dimethyl Indole]
- Half-Life of ADR Destruction, 100 μM Test Compound [2]: 17.7 min
- Half-Life of ADR Destruction, 100 μM Test Compound and 0.5 μM Riboflavin [1]: 5.79 min

Compound: Cc1ccc(C)[nH]1 [2,5-Dimethyl Pyrrole]
- Half-Life of ADR Destruction, 100 μM Test Compound and 0.5 μM Riboflavin [1]: 9.12 min

Compound: Nc1c(F)cccc1F [2,6-Difluoro Aniline]
- Half-Life of ADR Destruction, 100 μM Test Compound and 0.5 μM Riboflavin [1]: 27.4 min

Compound: Cc1cc2cccc(C)c2[nH]1 [2,7-Dimethyl Indole]
- Half-Life of ADR Destruction, 100 μM Test Compound and 0.5 μM Riboflavin [1]: 6.27 min

Compound: OCCOc1ccc2ccccc2c1 [2-(2-naphthyloxy) Ethanol]
- Half-Life of ADR Destruction, 100 μM Test Compound [2]: 30.1 min
- Half-Life of ADR Destruction, 100 μM Test Compound and 0.5 μM Riboflavin [1]: 2.95 min

Compound: O=C(O)CSc1ccc2ccccc2c1 [2-(2-naphthylthio) Acetic acid]
- Half-Life of ADR Destruction, 100 μM Test Compound [2]: 9.41 min
- Half-Life of ADR Destruction, 100 μM Test Compound and 0.5 μM Riboflavin [1]: 8.14 min

Compound: COc1ccc(C(=O)c2cccs2)cc1 [2-(4-Methoxybenzoyl)-thiophene]
- Half-Life of ADR Destruction, 100 μM Test Compound [2]: 9.41 min
- Half-Life of ADR Destruction, 100 μM Test Compound and 0.5 μM Riboflavin [1]: 8.36 min

Compound: CC(=O)c1ccc2ccccc2c1 [2-Acetonaphthone]
- Half-Life of ADR Destruction, 100 μM Test Compound [2]: 8.36 min
- Half-Life of ADR Destruction, 100 μM Test Compound and 0.5 μM Riboflavin [1]: 7.92 min

Compound: CC(=O)c1ccc[nH]1 [2-Acetyl Pyrrole]
- Half-Life of ADR Destruction, 100 μM Test Compound [2]: 50.2 min
- Half-Life of ADR Destruction, 100 μM Test Compound and 0.5 μM Riboflavin [1]: 30.1 min

Compound: CC(=O)c1cccn1C [2-Acetyl-1-methyl Pyrrole]
- Half-Life of ADR Destruction, 100 μM Test Compound and 0.5 μM Riboflavin [1]: 50.2 min

Compound: Nc1ccccc1S(=O)(=O)O [2-Amino Benzenesulfonic acid]
- Half-Life of ADR Destruction, 100 μM Test Compound and 0.5 μM Riboflavin [1]: 20.1 min

Compound: Nc1ccccc1CO [2-Amino Benzyl Alcohol]
- Half-Life of ADR Destruction, 100 μM Test Compound and 0.5 μM Riboflavin [1]: 3.96 min

Compound: NCc1ccccc1N [2-Amino Benzylamine]
- Half-Life of ADR Destruction, 100 μM Test Compound and 0.5 μM Riboflavin [1]: 14.3 min

Compound: Nc1ccccc1CCO [2-Amino Phenylethyl Alcohol]
- Half-Life of ADR Destruction, 100 μM Test Compound and 0.5 μM Riboflavin [1]: 13.7 min

Compound: Cc1cccc(CO)c1N [2-Amino-3-Methyl Benzyl Alcohol]
- Half-Life of ADR Destruction, 100 μM Test Compound and 0.5 μM Riboflavin [1]: 18.8 min

Compound: Cc1ccc(N)c(CO)c1 [2-Amino-5-Methyl Benzyl Alcohol]
- Half-Life of ADR Destruction, 100 μM Test Compound and 0.5 μM Riboflavin [1]: 24.5 ± 8.0 min

Compound: NC(=O)c1ccccc1N [2-Aminobenzamide]
- Half-Life of ADR Destruction, 100 μM Test Compound and 0.5 μM Riboflavin [1]: 33.5 min

Compound: Nc1ccccc1C(=O)c1ccccc1 [2-Aminobenzophenone]
- Half-Life of ADR Destruction, 100 μM Test Compound and 0.5 μM Riboflavin: 16.7 min

Compound: Nc1ccc2ccccc2c1 [2-Aminonaplithalene]
- Half-Life of ADR Destruction, 100 μM Test Compound and 0.5 μM Riboflavin: 20.1 min

Compound: O=C(O)c1cc2ccccc2o1 [2-Benzofurancarboxylic acid]
- Half-Life of ADR Destruction, 100 μM Test Compound and 0.5 μM Riboflavin [1]: 50.2 min

Compound: O=C(O)c1ccccc1C(=O)c1ccccc1 [2-Benzophenone-carboxylic acid]
- Half-Life of ADR Destruction, 100 μM Test Compound: 50.2 min

Compound: O=C(c1ccccc1)c1ccc[nH]1 [2-Benzoyl pyrrole]
- Half-Life of ADR Destruction, 100 μM Test Compound [2]: 50.2 min
- Half-Life of ADR Destruction, 100 μM Test Compound and 0.5 μM Riboflavin [1]: 33.5 min

Compound: O=C(c1ccccc1)c1ccccn1 [2-Benzoylpyridine]
- Half-Life of ADR Destruction, 100 μM Test Compound [2]: 100.3 min
- Half-Life of ADR Destruction, 100 μM Test Compound and 0.5 μM Riboflavin [1]: 100.3 min

Compound: O=C(c1ccccc1)c1cccs1 [2-Benzoylthiophene]
- Half-Life of ADR Destruction, 100 μM Test Compound [2]: 9.41 min
- Half-Life of ADR Destruction, 100 μM Test Compound and 0.5 μM Riboflavin [1]: 8.85 min

Compound: O=C(O)c1ccc2c(c1)-c1ccccc1-2 [2-Biphenylene Carboxylic Acid]
- Half-Life of ADR Destruction, 100 μM Test Compound and 0.5 μM Riboflavin [1]: 15.8 min

Compound: CCCCc1ccccc1N [2-Butyl Aniline]
- Half-Life of ADR Destruction, 100 μM Test Compound and 0.5 μM Riboflavin [1]: 10.2 min

Compound: CCc1ccc[nH]1 [2-Ethyl Pyrrole]
- Half-Life of ADR Destruction, 100 μM Test Compound and 0.5 μM Riboflavin [1]: 10.0 min

Compound: Nc1ccccc1F [2-Fluoro Aniline]
- Half-Life of ADR Destruction, 100 μM Test Compound and 0.5 μM Riboflavin [1]: 8.36 min

Compound: O=C(c1ccco1)c1cccs1 [2-Furyl-2-thienyl ketone]
- Half-Life of ADR Destruction, 100 μM Test Compound [2]: 7.00 min

Compound: Oc1ccc2c(c1)[nH]c1ccccc12 [2-Hydroxy Carbazole]
- Half-Life of ADR Destruction, 100 μM Test Compound and 0.5 μM Riboflavin (UVA light, with 0.5 μM riboflavin, +4% DMSO): 75.3 ± 35.4 min

Compound: N[C@@H](Cc1ccccc1O)C(=O)O [2-Hydroxy Phenylalanine]
- Half-Life of ADR Destruction, 100 μM Test Compound and 0.5 μM Riboflavin [1]: 15.1 min

Compound: Oc1ccc2ccccc2c1 [2-Hydroxynaphthalene]
- Half-Life of ADR Destruction, 100 μM Test Compound [2]: 30.1 min
- Half-Life of ADR Destruction, 100 μM Test Compound and 0.5 μM Riboflavin [1]: 23.2 min

Compound: COc1ccccc1CN [2-Methoxy Benzylamine]
- Half-Life of ADR Destruction, 100 μM Test Compound and 0.5 μM Riboflavin [1]: 43.0 min

Compound: COc1ccccc1C=CC=O [2-Methoxy Cinnamaldehyde]
- Half-Life of ADR Destruction, 100 μM Test Compound and 0.5 μM Riboflavin [1]: 50.2 min

Compound: COc1ccccc1O [2-Methoxy Phenol]
- Half-Life of ADR Destruction, 100 μM Test Compound [2]: 50.2 min
- Half-Life of ADR Destruction, 100 μM Test Compound and 0.5 μM Riboflavin [1]: 50.2 min

Compound: COc1ccc2ccccc2c1CO [2-Methoxy-1-naphthalenemethanol]
- Half-Life of ADR Destruction, 100 μM Test Compound and 0.5 μM Riboflavin [1]: 4.43 min

Compound: COc1[nH]c2ccccc2c1CN(C)C [2-Methoxy-3-(dimethylaminomethyl) indole]
- Half-Life of ADR Destruction, 100 μM Test Compound [2]: 75.3 min
- Half-Life of ADR Destruction, 100 μM Test Compound and 0.5 μM Riboflavin [1]: 13.7 min

Compound: COc1ccc2[nH]c3ccccc3c(=O)c2c1 [2-Methoxy-9(10H) Acridone]
- Half-Life of ADR Destruction, 100 μM Test Compound: 23.2 min
- Half-Life of ADR Destruction, 100 μM Test Compound and 0.5 μM Riboflavin: 16.7 min

Compound: COc1ccccc1C(C)CO (stereo not drawn) [2-Methoxy-β-Methyl-Phenylethyl Alcohol]
- Half-Life of ADR Destruction, 100 μM Test Compound [2]: 43.0 min
- Half-Life of ADR Destruction, 100 μM Test Compound and 0.5 μM Riboflavin [1]: 8.14 min

Compound: COc1ccc2ccccc2c1C(=O)O [2-Methoxynaphthalene-1-carboxylic acid]
- Half-Life of ADR Destruction, 100 μM Test Compound [2]: 33.5 min
- Half-Life of ADR Destruction, 100 μM Test Compound and 0.5 μM Riboflavin [1]: 2.95 min

Compound: Cc1cc2ccccc2[nH]1 [2-Methyl Indole]
- Half-Life of ADR Destruction, 100 μM Test Compound and 0.5 μM Riboflavin [1]: 7.00 min

Compound: Cc1[nH]c2ccccc2c1CC(=O)O [2-Methylindole-3-acetic acid]
- Half-Life of ADR Destruction, 100 μM Test Compound and 0.5 μM Riboflavin [1]: 4.57 ± 2.92 min

Compound: O=Cc1ccc2ccccc2c1 [2-Naphthaldehyde]
- Half-Life of ADR Destruction, 100 μM Test Compound [2]: 6.14 min
- Half-Life of ADR Destruction, 100 μM Test Compound and 0.5 μM Riboflavin [1]: 5.68 min
